Patent US10399994B2, “Compounds and methods for preventing or treating sensory hair cell death” (UNIVERSITY OF WASHINGTON, priority 2015, dated 2019)
“And” between values parts separate entries of the source, which are not always exact repeats. Equal entries are not always repeated. Structures can show the parent of a compound that is named as a salt.

How the values were obtained:
rats = assay: Auditory Brainstem Response (ABR) Assay; type: in vivo; details: Day 24 vs Day 0, FIG. 2
Experimental: Chronic treatment of rats with aminoglycosides (AGs) such as kanamycin or amikacin results in an elevation of ABR thresholds, typically most pronounced at higher frequencies. For rats, hearing is tested at a range of frequencies to determine the intensity of sound (measured in decibels) necessary to evoke a response. As hearing loss becomes more severe, a higher intensity is needed to evoke a response. Each rat serves as its own control; hearing thresholds are determined at each frequency prior to any treatment and then at 2 weeks after a 10-day course of AG treatment (or control drug exposures).
The ABR assay measures short latency field potentials recorded from the scalp of animals that were sedated or noninvasively immobilized. […] For each animal, hearing thresholds, wave 1 latencies and input-output functions for stimulus frequencies at 2, 4, 8, 16 and 32 kHz were measured prior to any treatment to determine the initial sensitivity and dynamic range of hearing, and then repeated at the end of drug treatment and at the end of the experiment (2-weeks after dosing). […]
ABR records were evaluated by a “blinded”, trained experimenter. Hearing loss (Threshold Shift) was determined by subtracting the threshold during pre-treatment (Day 0) from the final ABR threshold (Day 24; two weeks following treatment). […]

kidney = assay: Effect of Amikacin and Compound 9 on Kidney Function; type: in vivo, Fischer 344 rats; details: for creatinine clearance (CrCl) post-treatment compared to pretreatment: FIG. 3; for kidney histopathology damage score (0-4): FIG. 4
Experimental: The study consisted of three groups of Fischer 344 rats aged 6 weeks and weighing approximately 200 g at the start of the study. Group 1 consisted of six rats, randomly selected to receive amikacin only, Group 2 consisted of six rats chosen randomly to receive amikacin and compound 9, and Group 3 consisted of three rats, 2 rats given compound 9 and 1 rat given only 0.5% Methylcellulose, the diluent for compound 9. All animals receiving amikacin were given 320 mg/kg subcutaneously (SQ) from a freshly prepared solution of amikacin of 40 mg/mL. The compound 9 formualtion was prepared by weighing 13.08 mg of compound 9 dissolved in 12 mL of 0.5% MC in saline with vortexing, sonification and homogenization to obtain a solution with concentration at 12 mg/12 mL=1 mg/mL, dose volume is 5 mL/kg (5 mg/kg). The compound 9 solution was given by oral gavage at a dose of 5 mg/kg.
One day prior to the onset of dosing, blood was drawn from all rats for serum analysis and all rats were put into metabolic cages for 24 hour urine collection and analysis. All rats were returned to normal cages and allowed to eat and drink ad lib. All rats received their assigned treatments for 10 days and then were returned to metabolic cages for the 10th day. Three rats were randomly chosen from each of Group 1 and Group 2 to have additional blood draws at 30 min, 60 mn, 2 hr, 4 hr, 8 hr and 24 hr after the 10th dose for amikacin and compound 9 PK analysis. All rats had blood drawn for serum analysis at the end of day 10 and the 24 hour urine collected from day 10. After the final blood draw, all rats were euthanized and their kidneys removed and prepared for histopathology testing. The left kidneys were longitudinally sectioned, the right kidneys were cross sectioned. The pathologist read the slides, blinded to the group from which they were assigned. They graded viewed five different locations on each slide and gave each location a score for degree of damage: no damage (0 score); minimal (1-10%, 1 score), mild (11-20%, 2 score), moderate (21-50%, 3 score), or marked (51-100%, 4 score).
Previous studies have shown that aminoglycoside renal toxicity primarily affects the proximal and distal tubules of the kidney, eventually causing […] of the epithelial cells. The resulting damage causes, in part, decreased glomerular filtration rate (GFR) which may be a result of the tubular damage or partly through other mechanisms. The GFR was approximated using the creatinine clearance. […] The one-sided two-sample t-test p-value for the comparison of the amikacin only (Group 1) and amikacin+compound 9 (Group 2) are shown in a box between the two columns.

hair cells [1] = assay: Neomycin Hair Cell Toxicity Assay in Zebrafish; type: in vivo
Experimental: Zebrafish are bred and newly fertilized embryos are collected the week prior and raised at 28.5° C. in petri dishes containing embryo medium. Newly hatched free-swimming larvae are fed paramecium and dry fish food at 4 days post fertilization (dpf) with lights on. For treatment, fish 5-7 dpf are transferred to cell culture baskets and place within a well of a 6-well plate containing 7 milliliters of 1× embryo medium. Typically, tests are done with ten fish per basket but work well with up to 50 fish. All treatment and wash volumes are 7 milliliters.
1. Fish are pre-treated with test compound for 1 hour. Concentrations between 0.010 to 25 micromolar of test compound are tested.
2. Treat with 200 micromolar neomycin (neomycin sulfate, Sigma, St. Louis, Mo., catalog #N1142)+ test compound for 30 minutes.
3. […]
5. […] The DASPEI staining of ten neuromasts (SO1, SO2, IO1, IO2, IO3, IO4, M2, MI1, MI2 and O2) on one side of an animal are evaluated. Each neuromast is scored for presence of DASPEI staining (score=2), reduced DASPEI staining (score=1) or absence of DASPEI staining (score=0). […] Average scores and standard deviations are calculated for animals in each treatment group. Scores are normalized to control group (vehicle only, no drug, no neomycin) and expressed as % hair cell survival. […] If less than 50% hair cells survive, the HC50 is not determined. […]

hair cells [2] = assay: Cisplatin Hair Cell Toxicity Assay in Zebrafish; type: in vivo; details: cisplatin 50 μM for 24 hrs
Experimental: Zebrafish are bred and newly fertilized embryos are collected the week prior and raised at 28.5° C. in petri dishes containing embryo medium. Newly hatched free-swimming larvae are fed paramecium and dry fish food at 4 days post fertilization (dpf) with lights on. For treatment, fish 5-7 dpf are transferred to cell culture baskets and place within a well of a 6-well plate containing 7 milliliters of 1× embryo medium. Typically, tests are done with ten fish per basket but work well with up to 50 fish. All treatment and wash volumes are 7 milliliters. • 1. In a 48-well plate, place 10-12 fish/well in 300 μl of EM. • 2. Add ORC-13661 and vehicle control to each well at concentrations listed below. Swirl and place in incubator for 15 min. ORC-13661 concentrations tested: 0.103 μM, 0.308 μM, 0.925 μM, 2.78 μM, 8.33 μM. • 3. Add cisplatin 50 μM to pretreated and control wells. Swirl and place in incubator for 24 hrs. • 4. Place 1-2 drops of MS222 in each well to anesthetize fish, then aspirate treated EM. • 5. Add 300 μl/well of 4% paraformaldehyde to fix fish. Fix overnight at 4° C. or 2 hrs at room temperature (RT). • 6. Rinse wells with PBS for 15 min each 3 times. • 7. Add 300 μl/well of blocking solution for 1 hr at RT. • 8. Incubate with 300 μl/well of 1:400 mouse anti-Parvalbumin antibody overnight at 4° C. • 9. Rinse wells with PBS-T for 15 min each 3 times. • 10. […]

| SMILES | Hearing loss (ABR Threshold Shift) (rats; Amikacin alone SC 320 mg/kg/day for 10 days) | creatinine clearance (CrCl) post-treatment compared to pretreatment (kidney; Group 1: amikacin only 320 mg/kg SQ for 10 days) | kidney histopathology damage score (0-4) (kidney; amikacin only rats, longitudinal and cross sectioning of the kidney) | EC50 (hair cells [1]; Danio rerio, concentration that would produce 50% hair cell survival, 1 hour pre-treatment, then 200 micromolar neomycin + test compound for 30 minutes, read-out: HC50 (the source's name)) | Max HC Protection (hair cells [1]; at 2.6 μM, 200 micromolar neomycin, % hair cell survival normalized to control) | EC50 (hair cells [2]; Danio rerio, 15 min pretreatment, read-out: HC50 (the source's name)) | Max HC Protection (hair cells [2]; at 8.33 μM, hair cell counts as % control) | Hearing loss (ABR Threshold Shift), high frequency (rats; Amikacin SC 320 mg/kg/day + Compound 9 PO 5 mg/kg/day for 10 days) | creatinine clearance (CrCl) post-treatment compared to pretreatment (kidney; Group 2: amikacin 320 mg/kg SQ + compound 9 5 mg/kg oral gavage for 10 days) | kidney histopathology damage score (0-4) (kidney; amikacin + compound 9 treated rats, longitudinal and cross sectioning (values not assigned to section in text), vs amikacin only p<0.005, hydrochloride) |
| --- | --- | --- | --- | --- | --- | --- | --- | --- | --- | --- |
| NCC[C@H](O)C(=O)N[C@@H]1C[C@H](N)[C@@H](O[C@H]2O[C@H](CN)[C@@H](O)[C@H](O)[C@H]2O)[C@H](O)[C@H]1O[C@H]1O[C@H](CO)[C@@H](O)[C@H](N)[C@H]1O [amikacin, reference compound] | hearing loss | significantly different from baseline | 3.9 | – | – | – | – | – | – | – |
| CN1[C@H]2CC[C@@H]1c1c(sc(NC(=O)Nc3ccc(Cl)cc3)c1C(N)=O)C2 [Compound 9, (4R,7S)-2-(3-(4-chlorophenyl)ureido)-9-methyl-5,6,7,8-tetrahydro-4H-4,7-epiminocyclohepta[b]thiophene-3-carboxamide hydrochloride] | – | – | – | < 1000 nM | 96% protection at 2.6 μM | < 1000 nM | 90% protection at 8.33 μM | robust protection | significantly different from baseline | 3.6 and 3.1 |
